Data on one compound can be found in article PMC6149824, “Design and Synthesis of New Benzothiazole Compounds as Selective hMAO-B Inhibitors” (Molecules : A Journal of Synthetic Chemistry and Natural …, 2017).

The target of data set [1] is T1, hMAO-B (Homo sapiens, UniProt P27338).
T1 sequence (P27338 1-520): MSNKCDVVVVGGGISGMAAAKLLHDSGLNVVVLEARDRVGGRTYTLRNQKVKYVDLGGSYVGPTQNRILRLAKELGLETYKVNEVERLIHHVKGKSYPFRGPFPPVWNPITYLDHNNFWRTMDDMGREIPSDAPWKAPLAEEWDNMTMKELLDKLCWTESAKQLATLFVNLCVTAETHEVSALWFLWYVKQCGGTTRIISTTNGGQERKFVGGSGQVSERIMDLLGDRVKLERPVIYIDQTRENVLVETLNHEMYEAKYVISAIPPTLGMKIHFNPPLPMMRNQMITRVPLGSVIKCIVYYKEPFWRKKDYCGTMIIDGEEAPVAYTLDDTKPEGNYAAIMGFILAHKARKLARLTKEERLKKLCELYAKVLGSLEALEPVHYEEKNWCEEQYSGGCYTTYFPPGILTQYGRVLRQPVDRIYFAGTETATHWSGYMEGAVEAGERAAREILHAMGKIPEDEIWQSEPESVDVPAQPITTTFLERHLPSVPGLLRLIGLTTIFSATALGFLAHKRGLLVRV
Description: in vitro fluorometric hMAO-B inhibition assay (Amplex Red). In kind it is biochemical. The procedure: The method was performed in two steps, as previously described.
An enzyme inhibition assay was performed according to our recent study. […] After the incubation period, the reaction was started by adding a working solution (100 μL/well) ([…] Amplex Red reagent, 1 U/mL horseradish peroxidase and 1 mM p-tyramine) and all pipetting processes were performed using a Biotek Precision XS robotic system (BioTek Instruments, Winooski, VT, USA).
Control experiments were carried out simultaneously by replacing the inhibitor solution with 2% DMSO (20 μL). In order to check the probable inhibitory effect of inhibitors on horseradish peroxidase, a parallel reading was achieved by replacing enzyme solutions with 3% H2O2 solution (20 mM 100 μL/well). In addition, the probable capacity of the inhibitors to modify the fluorescence generated in the reaction mixture due to non-enzymatic inhibition was determined by mixing inhibitor and working solutions.
The specific fluorescence emission (used to obtain the final results) was calculated after subtraction of the background activity, which was determined from vials containing all components except the hMAO isoforms, which were replaced by phosphate buffer (100 μL/well). Blank, control and all concentrations of inhibitors were analyzed in quadruplicate and inhibition percent was calculated by using following equation: % Inhibition=(FCt2−FCt1)−(FIt2−FIt1)/FCt2−FCt1×100 where FCt2 is the fluorescence of a control well measured at t2 time; FCt1 is the fluorescence of a control well measured at t1 time; FIt2 is the fluorescence of an inhibitor well measured at t2 time; and FIt1 is the fluorescence of an inhibitor well measured at t1 time.
The IC50 values were calculated from a dose-response curve obtained by plotting the percentage inhibition versus the log concentration with the use of GraphPad PRISM software (version 5.0, GraphPad Software Inc., La Jolla, CA, USA).

Data set [2] addresses T1, hMAO-B. Description: enzyme kinetic studies (Lineweaver-Burk) of hMAO-B inhibition. In kind it is biochemical. As to the method:
The mechanism of hMAO-B inhibition was investigated by enzyme kinetic studies. Lineweaver-Burk graphs were used to estimate the type of inhibition. […] The velocity measurements were performed by using different substrate concentrations (20 µM–0.625 µM). The Ki (intercept on the x-axis) value of compound 3e was determined from the secondary plot of the 1/V versus varying concentrations.
The Lineweaver-Burk graphics present the inhibition type as a mixed-type, competitive, uncompetitive, or non-competitive. In the mix-typed inhibition, the control and inhibitor lines cross neither x- nor y-axis at the same point. […] There is no crosses between the lines in uncompetitive-type inhibition. […] Thus, it can be declared that the mechanism of hMAO-B inhibition of 3e is non-competitive, clarifying that the inhibitor can bind to either free enzyme or enzyme–substrate complex.
The same materials were used in the MAO inhibition assay. […] The solutions of inhibitor (20 μL/well) and enzyme added to the fine black-bottom 96-well microtiter plate and then the mixture was incubated at 37 °C for 30 min. After incubation period, the working solution, including various concentrations (20, 10, 5, 2.5, 1.25, and 0.625 μM) of tyramine (100 μL/well), was added. The increase of the fluorescence (Ex/Em = 535/587 nm) was recorded for 30 min. A parallel experiment was performed without using an inhibitor. All processes were assayed in quadruplicate. Lineweaver-Burk plots were obtained by using Microsoft Office Excel 2013 to analyze the inhibition type. The slopes of the Lineweaver-Burk plots were replotted versus the inhibitor concentration, and the Ki values were determined from the x-axis intercept as −Ki.

By melting point is commonly meant the temperature, or range, at which the solid turns liquid. Usually inhibition stands for the relative decrease from the control value, in per cent. For orientation: IC50 means the concentration at which inhibition is half-maximal. As usually defined, the Ki is a measure of affinity in units of concentration, obtained from inhibition or displacement.

Regarding `COc1ccc2sc(SCC(=O)NN=Cc3ccc([N+](=O)[O-])s3)nc2c1` [Compound 3e, 2-((5-Methoxybenzothiazol-2-yl)thio)-N′-((5-nitrothiophen-2-yl)methylene)acetohydrazide], the melting point was in the range of 177.2 to 178.6 °C. Moreover, at hMAO-B [1] (10^−3 M, read-out: MAO B Inhibition %), the inhibition at 1000 µM amounted to 87.3%. Also, at hMAO-B [1] (10^−3 and 10^−4 M), the “inhibition against hMAO-B (first screening step)” value is listed as “more than 50%”. In addition, the inhibition at 100 µM on hMAO-B [1] (10^−4 M, read-out: MAO B Inhibition %) is 83.5%. Further, at hMAO-B [1] (concentrations of 10^−5–10^−9 M, mean ± SD, read-out: MAO B IC50), the half-maximal inhibitory concentration (IC50) stood at 60 ± 2 nM. Besides, on hMAO-B [2] (Lineweaver-Burk plots), the “mechanism (type) of hMAO-B inhibition” value is listed as “non-competitive”. Further, at hMAO-B [2] (inhibitor concentration 2 × IC50), the Vmax is recorded as 158.730 nmol/min/mg protein. Also, the Vmax on hMAO-B [2] (inhibitor concentration IC50) turned out to be 212.766 nmol/min/mg protein. Also, at hMAO-B [2] (inhibitor concentration IC50/2), the Vmax stood at 263.158 nmol/min/mg protein. Further, at hMAO-B [2] (secondary plot, x-axis intercept, substrate tyramine, read-out: Ki (steady-state inhibition constant) for the inhibition of hMAO-B), the inhibitory constant (Ki) worked out at 61 nM.
